US11701361B2, “p110-delta inhibitors treat and prevent autoimmunity while sparing the ability to mount an immune response to exogenous immunogens” (THE REGENTS OF THE UNIVERSITY OF COLORADO, priority 2018, dated 2023)

Experiments:
BTK = experiment: phosphorylated signaling intermediaries after BCR stimulation: BTK; type: cell-based, mouse; conditions: all doses of inhibitor (15, 60, 490 nM), preincubation
Procedure: Cells are then washed 2× in serum free IMDM, and stimulated with 5 μg/ml of F(ab′)2 rabbit anti-mouse anti-IgG (H&L; Invitrogen) or 10 μg/ml anti-CD3-biotin (BD Biosciences)+20 μg/ml streptavidin (Sigma-Aldrich) for 2 minutes. Signaling was stopped by addition of 20% PFA to a final concentration of 2%, incubated at 37° C. for 15 minutes and resuspended in 100% ice-cold MeOH (directly from −80° C.). Cells were then placed on ice for 30 minutes and placed at −20° C. for storage. For analysis, cells were stained with B220-BV786, CD4-BV711, CD8-BV421, and/or pAKT-Alexa Fluor 647 (BD Biosciences), pPLCγ-PE (BD Biosciences), pBTK-BV421 (BD Biosciences) pSyk/Zap70-PE (BD Biosciences) at room temperature for 1 hour. Cells were washed 3 times and samples were acquired in triplicate on an LSR Fortessa X-20 (BD) with analysis using FlowJo software.

OT-II CD4 T cells = experiment: OT-II CD4 T cell adoptive transfer, response to OVA+P:IC immunization; type: in vivo, mouse; conditions: 0.9375 mg/kg chow vs vehicle control, five days post-immunization
Procedure: 2 hours before adoptive transfer, C57BL/6 recipient mice received 200 rads irradiation. […] B cells from donor mice were isolated via depletion of CD43+ cells with anti-CD43-conjugated magnetic beads (MACS anti-mouse CD43; Miltenyi Biotec). Alternatively, CD4+ T cells were isolated via CD4 positive selection (MACS anti-mouse CD4 (L3T4) Miltenyi Biotec). Resultant populations were >97% pure based on flow cytometric analyses. Donor B cells were labeled with either CellTrace Violet (Molecular Probes) or CFSE (Molecular Probes) at 5 μM for 5 minutes at room temperature prior to transfer. Donor CD4 T cells were labeled with CFSE (Molecular Probes) at 5 μM for 5 minutes at room temperature prior to transfer. 1-2×10^6 donor cells in 200 μl PBS were adoptively transferred via IV injection. 24 hours post transfer, tamoxifen was administered to activate Cre. Tamoxifen (Sigma-Aldrich) was dissolved in 100% corn oil (Sigma-Aldrich) at 20 mg/ml. Recipient mice were injected IP with 100 μl (2 mg) on two consecutive days.
Diet dose (DD) is calculated by multiplying the single daily dose (SD) by the body weight of a mouse (BW) and dividing that by the daily food intake (FI) [DD=(SD×BW)/FI].
For VH125.NOD experiments animals are placed on control chow immediately after weaning. […]

CC[C@H](Nc1ncnc2nc[nH]c12)c1nc2cccc(F)c2c(=O)n1-c1ccccc1 [idelalisib, 5-fluoro-3-phenyl-2-[(1S)-1-(7H-purin-6-ylamino)propyl]-4(3H)-quinazolinone]
phosphorylation of BTK (BTK): significantly reduced | proliferation (CFSE) of OT-II T cells (OT-II CD4 T cells): equivalent levels | upregulation of the activation marker CD44 on OT-II T cells (OT-II CD4 T cells): equivalent levels
